Measured values reported in patent US12043625B2, “Pyridine derivatives with c-linked cyclic substituents as cGAS inhibitors” (BOEHRINGER INGELHEIM INTERNATIONAL GMBH, priority 2021, dated 2024).

How the values were obtained:
[1] = system: IFN induction in cGAMP-stimulated THP1 cells; assay: cGAMP stimulated counter cell assay, THP1-Dual cells, Lucia luciferase reporter (THP1(cGAMP) IC50); assay type: cell-based; settings: Homo sapiens, THP-1, THP1-Dual cells stimulated with 10 μM cGAMP;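 further: IRF-driven Lucia luciferase luminescence after 18 h at 37° C, compound series topping at 10 µM with 1% DMSO, unstimulated wells as 0% and DMSO wells as 100%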
Excerpt: 6.2 Method: Human cGAS Cell Assay and cGAMP Stimulated Counter Cell Assay (THP1(vir) IC50 and THP1(cGAMP) IC50)
THP1-Dual™ cells (InvivoGen #thpd-nfis) expressing IRF dependent Lucia luciferase reporter were used as basis for both assays.
(§1) For the counter assay, cells were stimulated by cGAMP (SigmaAldrich #SML1232) to activate the identical pathway independent and directly downstream of cGAS (measurement of THP1(cAMP) IC50). Pathway activity was monitored by measuring the Lucia luciferase activity induced by either DNA stimulated cGAS enzyme activity (measurement of THP1^(vir) IC50) or by cGAMP directly (measurement of THP1(cAMP) IC50, counter assay).
Compounds were delivered in 10 mM DMSO solution, serially diluted and transferred to the 384 well assay plate (Greiner #781201) using an Echo acoustic dispenser. Typically, 8 concentrations were used with the highest concentration at 10 μM in the final assay volume followed by ˜1:5 dilution steps. DMSO concentration was set to 1% in the final assay volume. The 384 well assay plate contained 21 test compounds (column 1-22), and DMSO in column 23 and 24.
(§2) 30 μL of the cell/virus-mix were added to each well of the compound plate from column 1-23 via MultiDrop Combi dispenser (5000 cells/well). In column 24, 30 μl/5000 cells/well without virus were added as a low control.
(§3) The plates were then incubated for 18 h at 37° C. in a humidified incubator.
(§4) Following that, 15 μL of QuantiLuc detection reagent (InvivoGen #rep-qlcg5) were added to each well using a MultiDrop Combi. Measurement was done immediately after the addition using an EnVision reader (US-luminescence read-mode).
Data Evaluation and Calculation:
(§5) For data evaluation and calculation, the measurement of the low control was set as 0% control and the measurement of the high control was set as 100% control. The IC50 values were calculated using the standard 4 parameter logistic regression formula. Calculation: [y=(a−d)/(1+(x/c)^b)+d], a=low value, d=high value; x=conc M; c=1C50 M; b=slope

[2] = system: IFN induction in virus-stimulated THP1 cells; assay: Human cGAS cell assay, baculovirus-stimulated THP1-Dual cells, Lucia luciferase reporter (THP1(vir) IC50); assay type: cell-based; settings: for IC50: Homo sapiens, THP-1, baculovirus-stimulated THP1-Dual cells, 18 h; for Ratio THP(cGAMP) IC50/THP(vir) IC50: selectivity for cGAS inhibition;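 on all read-outs here: IRF-dependent luminescence, 8 concentrations up to 10 µM in 1% DMSO, 0% = unstimulated cells, 100% = DMSO plus virus, counter assay stimulated with cGAMP downstream of cGAS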
Excerpt: THP1-Dual™ cells (InvivoGen #thpd-nfis) expressing IRF dependent Lucia luciferase reporter were used as basis for both assays. For the detection of cellular cGAS activity cells were stimulated by a baculovirus (pFastbac-1, Invitrogen, no coding insert) infection that delivers the cGAS enzyme stimulating double-stranded DNA (measurement of THP1(vir) IC50).
as §1
Typically, 8 concentrations were used with the highest concentration at 10 μM in the final assay volume followed by ˜1:5 dilution steps. DMSO concentration was set to 1% in the final assay volume. The 384 well assay plate contained 21 test compounds (column 1-22), and DMSO in column 23 and 24.
The baculovirus solution was then added 1:200 (may have varied according to virus batch) to the cells (measurement of THP1(vir) IC50).
as §2, §3, §4
Data Evaluation and Calculation:
as §5

Human cGAS = Human cGAS (Homo sapiens (Human), UniProt Q8N884); assay: Human cGAS enzyme assay (hcGAS IC50, in vitro), cGAMP formation by RapidFire MS; assay type: biochemical; settings: 45 bp dsDNA, GTP/ATP;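 further: compounds preincubated 60 min, then GTP and ATP (30 µM each) added for 90 min at room temperature, cGAMP read relative to cyclic-di-GMP internal standard, no-enzyme/DNA wells as 0%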
Chain of Human cGAS (Q8N884 whole entry): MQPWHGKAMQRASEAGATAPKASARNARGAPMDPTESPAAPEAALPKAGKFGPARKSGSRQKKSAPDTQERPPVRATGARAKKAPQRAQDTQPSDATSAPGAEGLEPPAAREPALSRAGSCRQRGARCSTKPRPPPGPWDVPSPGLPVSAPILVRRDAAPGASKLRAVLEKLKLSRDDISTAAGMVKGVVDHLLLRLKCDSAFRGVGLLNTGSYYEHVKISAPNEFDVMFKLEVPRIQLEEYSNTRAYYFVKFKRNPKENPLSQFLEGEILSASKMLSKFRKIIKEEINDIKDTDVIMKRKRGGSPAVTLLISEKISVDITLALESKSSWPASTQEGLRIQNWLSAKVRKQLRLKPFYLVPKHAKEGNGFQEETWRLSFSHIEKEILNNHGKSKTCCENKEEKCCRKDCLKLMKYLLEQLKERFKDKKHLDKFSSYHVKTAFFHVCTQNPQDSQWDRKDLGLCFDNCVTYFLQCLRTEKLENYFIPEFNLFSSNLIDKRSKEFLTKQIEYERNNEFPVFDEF

[3] = system: IFN induction in dsDNA-stimulated human whole blood; assay: Human whole blood assay, dsDNA transfection, IFNα2a production (hWB IC50); assay type: cell-based;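 further: cGAS pathway activity, IFNα2a in plasma by MSD immunoassay after 22 h at 37 °C, 8 concentrations up to 10 µM in 0.1% DMSO, DMSO controls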
Description: For the detection of cellular cGAS activity human whole blood was stimulated by transfection with double stranded DNA. Pathway activity was monitored by measuring the IFNα2α production.
Typically, 8 concentrations were used with the highest concentration at 10 μM in the final assay volume followed by ˜1:5 dilution steps. DMSO concentration was set to 0.1% in the final assay volume. The 96-well assay plate contained 10 test compounds, and DMSO in control wells.
Whole blood was kept at room temperature for a maximum of 3 hours after collection until use in the assay.
160 μl of the whole blood samples was transferred to each well of the 96-well assay plates filled with compound/OptiMEM. All assay plates were prepared as duplicates with blood from different donors. Blood plates were kept at room temperature for 60 minutes and continuous shaking with 450 rpm, covered with the lid, but not sealed.
20 μl OptiMEM and 9.6:1 Fugene was added to all low control wells.
After covering assay plates with aera seals and the lid, blood plates were kept at room temperature for 30 minutes and continuous shaking with 450 rpm, followed by an overnight incubation of 22 h at 37° C. in the incubator, without shaking.
U-Plex MSD GOLD 96-well Small Spot Strepavidin SECTOR Plates (Meso Scale Diagnostics #L45SA-5) were coated with 25 μl diluted capture antibody. Coated plates were incubated for 60 min at room temperature under continuous shaking at 700 rpm. MSD IFNα-2a plates were washed three times with 150 μl wash buffer (1×HBSS, 0.05% Tween).
After blocking the plates with 100 μl block solution/well (1×HBSS with 0.2% Tween, 2% BSA) for 60 min at room temperature and continuous shaking at 700 rpm, plates were emptied as dry as possible by dumping just before continuing with the human plasma.
Whole Blood assay plates were centrifuged at 1600 rpm for 10 minutes. 25 μl of supernatant was transferred with a pipetting robot from each whole blood plate to the corresponding IFNα-2a plate.
Plates were sealed with microplate seals and kept at room temperature again under continuous shaking at 700 rpm for two hours.
Next MSD IFNα-2a plates were washed three times with 150 μl wash buffer (1×HBSS, 0.05% Tween), before adding 25 μl MSD SULFO-TAG IFNα-2a Antibody solution (1:100 diluted in Diluent 3 (Meso Scale Diagnostics #R50AP-2) to each well of the plates.
Afterwards plates were sealed with microplate seals and kept at room temperature again under continuous shaking at 700 rpm for two hours. Finally, MSD IFNα-2α plates were washed three times with 150 μl wash buffer (1×HBSS, 0.05% Tween). 150 μl 2× Read buffer was added to each well and plates were immediately measured with the MSD Sector S600 Reader using the vendor barcode.
For data evaluation and calculation, % control calculation of each well was based on the mean of high (DNA stimulated control) and mean of low (unstimulated control) controls by using the following formula: [counts(sample)−counts(low))/(counts(high)−counts(low))]*100
The IC50 values were calculated using the standard 4 parameter logistic regression formula. Calculation: [y=(a−d)/(1+(x/c)^b)+d], a=low value, d=high value; x=conc M; c=1C50 M; b=slope

## C[C@H]1CS(=O)(=O)C(C)(C)C[C@]1(F)c1cc(Cl)cnc1O[C@H]1C[C@@H](C(=O)O)N(c2nc(C(F)F)nc3c2oc2ccccc23)C1 [Example 1.16]
[1]
  IC50: 8240 nM
[2]
  IC50: 8 nM
  Ratio THP(cGAMP) IC50/THP(vir) IC50: 1055
Human cGAS
  IC50: 5 nM
[3]
  IC50: 6 nM

## CC1(C)C[C@](F)(c2cc(Cl)cnc2O[C@H]2C[C@@H](C(=O)O)N(c3nc(C(F)F)nc4c3oc3ccccc34)C2)CCS1(=O)=O [Example 2.08]
[1]
  IC50: 12000 nM
[2]
  IC50: 25 nM
  Ratio THP(cGAMP) IC50/THP(vir) IC50: 479
Human cGAS
  IC50: 5 nM
[3]
  IC50: 28 nM

## C#Cc1cnc(O[C@H]2C[C@@H](C(=O)O)N(c3nc(C(F)F)nc4c3oc3ccccc34)C2)c([C@@]2(F)CCOC[C@@H]2C)c1 [Example 1.02]
[1]
  IC50: 18900 nM
[2]
  IC50: 351 nM
  Ratio THP(cGAMP) IC50/THP(vir) IC50: 54
Human cGAS
  IC50: 3 nM
[3]
  IC50: 103 nM

## C#Cc1cnc(O[C@H]2C[C@@H](C(=O)O)N(c3nc(C(F)F)nc4c3oc3ccccc34)C2)c([C@@]2(F)CCS(=O)(=O)C[C@@H]2C)c1 [Example 2.11]
[1]
  IC50: > 16600 nM
[2]
  IC50: 4 nM
  Ratio THP(cGAMP) IC50/THP(vir) IC50: >3829
Human cGAS
  IC50: 2 nM
[3]
  IC50: 3 nM

## CNc1cccc(-c2cnc(O[C@H]3C[C@@H](C(=O)O)N(c4nc(C(F)F)nc5c4oc4ccccc45)C3)c([C@@]3(F)CCOC[C@@H]3C)c2)c1 [Example 6.03]
[1]
  IC50: 9510 nM
[2]
  IC50: 35 nM
  Ratio THP(cGAMP) IC50/THP(vir) IC50: 276
Human cGAS
  IC50: 10 nM
[3]
  IC50: 38 nM

## O=C(O)[C@@H]1C[C@H](Oc2ncc(Cl)cc2[C@@]2(F)CCS(=O)(=O)C3(COC3)C2)CN1c1nc(C(F)F)nc2c1oc1ccccc12 [Example 1.19]
[1]
  IC50: 14000 nM
[2]
  IC50: 566 nM
  Ratio THP(cGAMP) IC50/THP(vir) IC50: 25
Human cGAS
  IC50: 5 nM
[3]
  IC50: 316 nM

## COC(=O)[C@@H]1C[C@H](Oc2ncc(Cl)cc2[C@@]2(OC)CC(C)(C)S(=O)(=O)C[C@@H]2C)CN1c1nc(C(F)F)nc2c1oc1ccccc12 [Example P03]
[1]
  IC50: 20600 nM
[2]
  IC50: 202 nM
Human cGAS
  IC50: 7250 nM
[3]
  IC50: 1990 nM

## C#Cc1cnc(O[C@H]2C[C@@H](C(=O)O)N(c3nc(C(F)F)nc4c3oc3ccccc34)C2)c(C2(F)CCS(=O)(=O)CC2)c1 [Example 2.03]
[1]
  IC50: > 16600 nM
[2]
  IC50: 112 nM
  Ratio THP(cGAMP) IC50/THP(vir) IC50: >148
Human cGAS
  IC50: 2 nM
[3]
  IC50: 40 nM

## C#Cc1cnc(O[C@H]2C[C@@H](C(=O)O)N(c3nc(C(F)(F)F)nc4c3oc3ccccc34)C2)c([C@]2(F)CCS(=O)(=O)C[C@H]2C)c1 [Example 2.15]
[1]
  IC50: 10300 nM
[2]
  IC50: 207 nM
  Ratio THP(cGAMP) IC50/THP(vir) IC50: 50
Human cGAS
  IC50: 6 nM
[3]
  IC50: 291 nM

## O=C(O)[C@@H]1C[C@H](Oc2ncc(-n3cc(Cl)cn3)cc2C2(F)CCOCC2)CN1c1nc(C(F)F)nc2c1oc1ccccc12 [Example 5.01, (2S,4S)-4-{[5-(4-chloro-1H-pyrazol-1-yl)-3-(4-fluorooxan-4-yl)pyridin-2-yl]oxy}-1-[4-(difluoromethyl)-8-oxa-3,5-diazatricyclo[7.4.0.0^2,7]trideca-1(13),2,4,6,9,11-hexaen-6-yl]pyrrolidine-2-carboxylic acid]
[1]
  IC50: > 16600 nM
[2]
  IC50: 1000 nM
  Ratio THP(cGAMP) IC50/THP(vir) IC50: >17
Human cGAS
  IC50: 12 nM
[3]
  IC50: 2890 nM

## C#Cc1cnc(O[C@H]2C[C@@H](C(=O)O)N(c3nc(C(F)(F)F)nc4c3oc3ccccc34)C2)c(C23CCOCC2C3)c1 (stereo partly drawn) [Example 4.01, (2S,4S)-4-[(5-ethynyl-3-{3-oxabicyclo[4.1.0]heptan-6-yl}pyridin-2-yl)oxy]-1-[4-(trifluoromethyl)-8-oxa-3,5-diazatricyclo[7.4.0.0^2,7]trideca-1(13),2,4,6,9,11-hexaen-6-yl]pyrrolidine-2-carboxylic acid]
[1]
  IC50: > 16600 nM
[2]
  IC50: 784 nM
  Ratio THP(cGAMP) IC50/THP(vir) IC50: >21
Human cGAS
  IC50: 8 nM
[3]
  IC50: 1500 nM
